Measured values from US20130252890A1, “6,7-DIHYDRO-5H-BENZO[7]ANNULENE DERIVATIVES, PROCESS FOR PREPARATION THEREOF, PHARMACEUTICAL PREPARATIONS COMPRISING THEM, AND THE USE THEREOF FOR PRODUCTION OF MEDICAMENTS” (BAYER INTELLECTUAL PROPERTY GMBH, priority 2010, published 2013).

These compounds were tested against T1, oestrogen receptor (ER) (Homo sapiens, UniProt P03372) (assay: Anti-oestrogenic action in MVLN cells (inhibition of estradiol-induced luciferase)). Details: inhibition of estradiol-induced luciferase signal, value of Ex. 44 is a mean value, read-out: Antioestrogenic action in vitro: MVLN transactivation antagonism IC50.
T1 construct: These MVLN cells express, along with the functional oestrogen receptor (ER), a reporter construct; endogenous in cells; host or cells: MVLN cells (MCF7 derivative carrying a luciferase reporter construct)
T1 sequence (P03372 1-595): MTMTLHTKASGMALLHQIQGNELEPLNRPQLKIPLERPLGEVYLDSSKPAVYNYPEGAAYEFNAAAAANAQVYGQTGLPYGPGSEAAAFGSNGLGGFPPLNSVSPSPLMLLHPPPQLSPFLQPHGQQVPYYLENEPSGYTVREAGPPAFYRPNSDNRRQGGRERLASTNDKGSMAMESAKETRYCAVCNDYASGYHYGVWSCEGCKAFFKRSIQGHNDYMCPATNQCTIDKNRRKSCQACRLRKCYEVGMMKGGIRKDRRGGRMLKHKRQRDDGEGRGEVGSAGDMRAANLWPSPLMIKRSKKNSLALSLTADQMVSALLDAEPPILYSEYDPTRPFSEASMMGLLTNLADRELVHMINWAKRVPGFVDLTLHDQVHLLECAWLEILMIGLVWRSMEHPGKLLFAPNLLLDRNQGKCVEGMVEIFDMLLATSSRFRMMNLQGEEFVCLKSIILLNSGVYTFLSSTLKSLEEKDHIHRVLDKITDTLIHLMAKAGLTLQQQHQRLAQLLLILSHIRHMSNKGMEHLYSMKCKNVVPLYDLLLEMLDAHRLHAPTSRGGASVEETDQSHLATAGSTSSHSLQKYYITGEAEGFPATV
Format: cell-based
Source text: The anti-oestrogenic action of the claimed pharmacological compounds was investigated in so-called MVLN cells in vitro. MVLN cells are derivatives of the hormone-responsive MCF7 breast cancer cells known by a person skilled in the art. These MVLN cells express, along with the functional oestrogen receptor (ER), a reporter construct, which under ER-activation expresses luciferase. Determination of the activity of the induced luciferase permits a direct conclusion on the oestrogen properties of substances. To investigate the anti-oestrogenic properties of the pharmacological compounds, they were investigated in the presence of oestrogen for their potential for inhibiting the luciferase signal induced by estradiol. The claimed pharmacological test substances were investigated in MVLN cells for their anti-oestrogenic potential, as described (see Table 2).
With `COCCN(CCCCCCC1=C(c2ccc(F)cc2)CCCc2c1ccc(O)c2F)CCCS(=O)(=O)CCCC(F)(F)C(F)(F)F` [Example 40, 4-Fluoro-8-(4-fluorophenyl)-9-{6-[(2-methoxyethyl){3-[(4,4,5,5,5-pentafluoropentyl)sulphonyl]propyl}amino]hexyl}-6,7-dihydro-5H-benzo[7]annulen-3-ol] the IC50 was 170 nM.
Work on `COCCN(CCCCCCC1=C(c2ccc(F)c(F)c2)CCCc2cc(O)ccc21)CCCS(=O)(=O)CCCC(F)(F)C(F)(F)F` [Example 31, 8-(3,4-Difluorophenyl)-9-{6-[(2-methoxyethyl){3-[(4,4,5,5,5-pentafluoropentyl)sulphonyl]propyl}amino]hexyl}-6,7-dihydro-5H-benzo[7]annulen-3-ol] yielded an IC50 of 16 nM.
With `COC(=O)CN(CCCCCCC1=C(c2ccc(F)cc2)CCCc2cc(O)ccc21)CCCCS(=O)(=O)CCCC(F)(F)F` [Example 82, Methyl-N-{6-[8-(4-fluorophenyl)-3-hydroxy-6,7-dihydro-5H-benzo[7]annulen-9-yl]hexyl}-N-{4-[(4,4,4-trifluorobutyl)sulphonyl]butyl}glycinate] the IC50 was 13 nM.
With `CN(CCCCCCC1=C(c2cc(F)cc(F)c2)CCCc2cc(O)ccc21)CCCCCS(=O)(=O)CCC(F)(F)F` [Example 68, 8-(3,5-Difluorophenyl)-9-[6-(methyl{5-[(3,3,3-trifluoropropyl)sulphonyl]pentyl}amino)hexyl]-6,7-dihydro-5H-benzo[7]annulen-3-ol] the IC50 was 106 nM.
Compound `CN(CCCCCCC1=C(c2cc(F)cc(F)c2)CCCc2cc(O)ccc21)CCC[S+]([O-])CCC(F)(F)C(F)(F)F` (centres unmarked) [Example 2, 8-(3,5-Difluorophenyl)-9-[6-(methyl{3-[(3,3,4,4,4-pentafluorobutyl)sulphinyl]propyl}amino)hexyl]-6,7-dihydro-5H-benzo[7]annulen-3-ol] has an IC50 of 8 nM.
Work on `COCCCN(CCCCCCC1=C(c2ccc(F)c(F)c2)CCCc2cc(O)ccc21)CCCS(=O)(=O)CCCC(F)(F)C(F)(F)F` [Example 32, 8-(3,4-Difluorophenyl)-9-{6-[(3-methoxypropyl){3-[(4,4,5,5,5-pentafluoropentyl)sulphonyl]propyl}amino]hexyl}-6,7-dihydro-5H-benzo[7]annulen-3-ol] yielded an IC50 of 33 nM.
Work on `CS(=O)(=O)N(CCCCCCC1=C(c2ccc(F)cc2)CCCc2cc(O)ccc21)CCCCS(=O)(=O)CCCC(F)(F)F` [Example 91, N-{6-[8-(4-Fluorophenyl)-3-hydroxy-6,7-dihydro-5H-benzo[7]annulen-9-yl]hexyl}-N-{4-[(4,4,4-trifluorobutyl)sulphonyl]butyl}methanesulphonamide] yielded an IC50 of 67 nM.
`O=C(CN(CCCCCCC1=C(c2ccc(F)cc2)CCCc2cc(O)ccc21)CCCCS(=O)(=O)CCCC(F)(F)F)OCc1ccccc1` [Example 81, Benzyl-N-{6-[8-(4-fluorophenyl)-3-hydroxy-6,7-dihydro-5H-benzo[7]annulen-9-yl]hexyl}-N-{4-[(4,4,4-trifluorobutyl)sulphonyl]butyl}glycinate] showed an IC50 of 40 nM.
`N#CCN(CCCCCCC1=C(c2ccc(F)cc2)CCCc2cc(O)ccc21)CCCCS(=O)(=O)CCCC(F)(F)F` [Example 90, ({6-[8-(4-Fluorophenyl)-3-hydroxy-6,7-dihydro-5H-benzo[7]annulen-9-yl]hexyl}{4-[(4,4,4-trifluorobutyl)sulphonyl]butyl}amino)acetonitrile] was tested, and the IC50 was 14 nM.
Compound `O=S(=O)(CCCN(CCCCCCC1=C(c2ccc(F)cc2)CCCc2c1ccc(O)c2F)Cc1ccc(F)cc1)CCCC(F)(F)C(F)(F)F` [Example 65, 4-Fluoro-9-{6-[(4-fluorobenzyl){3-[(4,4,5,5,5-pentafluoropentyl)sulphonyl]propyl}amino]hexyl}-8-(4-fluorophenyl)-6,7-dihydro-5H-benzo[7]annulen-3-ol] has an IC50 of 116 nM.
Compound `O=S(=O)(CCCCNCCCCCCC1=C(c2ccc(F)cc2)CCCc2cc(O)ccc21)CCCC(F)(F)F` [Example 77, 8-(4-Fluorophenyl)-9-[6-({4-[(4,4,4-trifluorobutyl)sulphonyl]butyl}amino)hexyl]-6,7-dihydro-5H-benzo[7]annulen-3-ol] has an IC50 of 10 nM.
With `CN(CCCCCCC1=C(c2cc(F)cc(F)c2)CCCc2cc(O)ccc21)CCCS(=O)(=O)CCC(F)(F)F` [Example 6, 8-(3,5-Difluorophenyl)-9-[6-(methyl{3-[(3,3,3-trifluoropropyl)sulphonyl]propyl}amino)hexyl]-6,7-dihydro-5H-benzo[7]annulen-3-ol] the IC50 was 181 nM.
With `CN(CCCCCCC1=C(c2ccc(F)cc2)CCCc2c1ccc(O)c2F)CCCS(=O)(=O)CCCC(F)(F)C(F)(F)F` [Example 33, 4-Fluoro-8-(4-fluorophenyl)-9-[6-(methyl{3-[(4,4,5,5,5-pentafluoropentyl)sulphonyl]propyl}amino)hexyl]-6,7-dihydro-5H-benzo[7]annulen-3-ol] the IC50 was 11 nM.
With `O=S(=O)(CCCN(CCCCCCC1=C(c2ccc(F)cc2)CCCc2c1ccc(O)c2F)CC(F)F)CCCC(F)(F)C(F)(F)F` [Example 64, 9-{6-[(2,2-Difluoroethyl){3-[(4,4,5,5,5-pentafluoropentyl)sulphonyl]propyl}amino]hexyl}-4-fluoro-8-(4-fluorophenyl)-6,7-dihydro-5H-benzo[7]annulen-3-ol] the IC50 was 86 nM.
`CN(CCCCCCC1=C(c2ccc(F)c(F)c2)CCCc2cc(O)ccc21)CCCS(=O)(=O)CCC(F)(F)C(F)(F)F` [Example 19, 8-(3,4-Difluorophenyl)-9-[6-(methyl{3-[(3,3,4,4,4-pentafluorobutyl)sulphonyl]propyl}amino)hexyl]-6,7-dihydro-5H-benzo[7]annulen-3-ol] showed an IC50 of 62 nM.
Compound `CN(CCCCCCC1=C(c2ccc(F)cc2)CCCc2cc(O)c(F)cc21)CCCS(=O)(=O)CCCC(F)(F)C(F)(F)F` [Example 99, 2-Fluoro-8-(4-fluorophenyl)-9-[6-(methyl{3-[(4,4,5,5,5-pentafluoropentyl)sulphonyl]propyl}amino)hexyl]-6,7-dihydro-5H-benzo[7]annulen-3-ol] has an IC50 of 15 nM.
For `[2H]C([2H])([2H])N(CCCCCCC1=C(c2ccc(F)cc2)CCCc2cc(O)ccc21)CCCS(=O)(=O)CCCCC(F)(F)F` [Example 139, 8-(4-Fluorophenyl)-9-{6-[(^2H3)methyl{3-[(5,5,5-trifluoropentyl)sulphonyl]propyl}amino]hexyl}-6,7-dihydro-5H-benzo[7]annulen-3-ol], the IC50 was 7 nM.
`O=S(=O)(CCCN(CCF)CCCCCCC1=C(c2ccc(F)cc2)CCCc2c1ccc(O)c2F)CCCC(F)(F)C(F)(F)F` [Example 85, 4-Fluoro-9-{6-[(2-fluoroethyl){3-[(4,4,5,5,5-pentafluoropentyl)sulphonyl]propyl}amino]hexyl}-8-(4-fluorophenyl)-6,7-dihydro-5H-benzo[7]annulen-3-ol] was tested, and the IC50 was 51 nM.
Compound `CN(CCCCCCC1=C(c2ccc(F)c(F)c2)CCCc2cc(O)ccc21)CCCS(=O)(=O)CCC(F)(F)F` [Example 22, 8-(3,4-Difluorophenyl)-9-[6-(methyl{3-[(3,3,3-trifluoropropyl)sulphonyl]propyl}amino)hexyl]-6,7-dihydro-5H-benzo[7]annulen-3-ol] has an IC50 of 222 nM.
`CN(CCCCCCC1=C(c2ccc(F)cc2)CCCc2cc(O)ccc21)CCCCS(=O)(=O)CCC(F)(C(F)(F)F)C(F)(F)F` [Example 111, 8-(4-Fluorophenyl)-9-{6-[methyl(4-{[3,4,4,4-tetrafluoro-3-(trifluoromethyl)butyl]sulphonyl}butyl)amino]hexyl}-6,7-dihydro-5H-benzo[7]annulen-3-ol] showed an IC50 of 33 nM.
In the case of `CC(C)(O)CN(CCCCCCC1=C(c2cc(F)cc(F)c2)CCCc2cc(O)ccc21)CCCS(=O)(=O)CCCC(F)(F)C(F)(F)F` [Example 13, 8-(3,5-Difluorophenyl)-9-{6-[(2-hydroxy-2-methylpropyl){3-[(4,4,5,5,5-pentafluoropentyl)sulphonyl]propyl}amino]hexyl}-6,7-dihydro-5H-benzo[7]annulen-3-ol], the IC50 is reported as 20 nM.
With `CN(CCCCCCC1=C(c2ccc(F)c(F)c2)CCCc2cc(O)ccc21)CCC[S+]([O-])CCC(F)(F)C(F)(F)F` (centres unmarked) [Example 18, 8-(3,4-Difluorophenyl)-9-[6-(methyl{3-[(3,3,4,4,4-pentafluorobutyl)sulphinyl]propyl}amino)hexyl]-6,7-dihydro-5H-benzo[7]annulen-3-ol] the IC50 was 34 nM.
Work on `CN(CCCCCCC1=C(c2ccc(F)cc2)CCCc2c1ccc(O)c2F)CCCSCCCC(F)(F)C(F)(F)F` [Example 86, 4-Fluoro-8-(4-fluorophenyl)-9-[6-(methyl{3-[(4,4,5,5,5-pentafluoropentyl)sulphanyl]propyl}amino)hexyl]-6,7-dihydro-5H-benzo[7]annulen-3-ol] yielded an IC50 of 25 nM.
